Here are results for two molecules from ChEMBL document CHEMBL4680271, “COVID-19: Drug Targets and Potential Treatments” (J Med Chem, 2020).

Broadly, the IC50 is the concentration that gives 50% inhibition.

This assay is described as follows: Inhibition of CTSL/CTSB in 293T/17 cells harboring ACE2 assessed as reduction in SARS-CoV-2 S pseudovirions entry into host cell incubated for 2 days by luciferase method. Format: cell-based. The settings on record: Severe acute respiratory syndrome-related coronavirus, HEK293T/17, 48 h.

SMILES strings stand for the structures.

Turning to `CC(C)(C)N1CCN(C(=O)N[C@@H](Cc2ccccc2)C(=O)N[C@H](/C=C/S(=O)(=O)c2ccccc2)CCc2ccccc2)CC1`, the IC50 is 0.08 nM. To `CN1CCN(C(=O)N[C@@H](Cc2ccccc2)C(=O)N[C@H](/C=C/S(=O)(=O)c2ccccc2)CCc2ccccc2)CC1` [K-777] belongs 0.32 nM.
